≈ marks a conversion by molar mass, not a printed value. Blank lines part the entries; values can stand above or below the molecule they belong to. Calls of active or inactive are those of the source. The rule behind the calls is not given here.
Legend:
[1] = test system: HCT-116; test: Cytotoxicity against human HCT-116 cells assessed as inhibition of cell growth at 20 uM incubated for 48 hrs by SRB assay relative to control; assay type: functional
[2] = test system: MCF7; test: Cytotoxicity against human MCF7 cells assessed as inhibition of cell growth at 20 uM incubated for 48 hrs by SRB assay relative to control; assay type: functional
[3] = test system: MCF7; test: Anticancer activity against human MCF7 cells assessed as effect on cell viability by SRB assay; assay type: functional, cell-based
[4] = test system: HCT-116; test: Cytotoxicity against human HCT-116 cells assessed as inhibition of cell growth incubated for 48 hrs by SRB assay; assay type: functional, cell-based; conditions: HCT-116, 48 h
[5] = test system: MCF7; test: Cytotoxicity against human MCF7 cells assessed as inhibition of cell growth incubated for 48 hrs by SRB assay; assay type: functional, cell-based; conditions: MCF7, 48 h
[6] = Cytotoxicity against human HEK293 cells assessed as inhibition of cell growth incubated for 48 hrs by SRB assay; assay type: toxicity, cell-based
[7] = Selectivity index, ratio of IC50 for HEK293 cells to IC50 for human HCT-116 cells; assay type: toxicity; conditions: HEK293 cells versus HCT-116 cells, read-out: Ratio IC50
[8] = Selectivity index, ratio of IC50 for HEK293 cells to IC50 for human MCF7 cells; assay type: toxicity; conditions: HEK293 cells versus MCF7 cells, read-out: Ratio IC50
[9] = Solubility of compound in water by UV absorbance based analysis; assay type: physicochemical
[10] = Solubility of compound in SGF by UV absorbance based analysis; assay type: physicochemical
[11] = Solubility of compound in SIF by UV absorbance based analysis; assay type: physicochemical
[12] = test system: Raji; test: Anticancer activity against human Raji cells; assay type: functional, cell-based
[13] = test system: Jurkat; test: Anticancer activity against human Jurkat cells; assay type: functional, cell-based

Structure (SMILES): C=C(C)[C@@H]1CCC(C)=C[C@H]1c1c(O)cc(CCCCC)c2c1OCN(c1ccccc1)C2
- inhibition at 20 µM [1]: 4.09%
- inhibition at 20 µM [2]: 5.3%

Structure (SMILES): Cc1ccc(Cn2nc(C(=O)N[C@@H]3C(C)(C)[C@@H]4CC[C@@]3(C)C4)cc2-c2ccc(Cl)c(C)c2)cc1
- Activity [3]: inactive

Structure (SMILES): C=C(C)[C@@H]1CCC(C)=C[C@H]1c1c(O)cc(CCCCC)c2c1OCN(c1ccccc1F)C2
- inhibition at 20 µM [1]: 1.13%
- inhibition at 20 µM [2]: 16.6%

Structure (SMILES): C=C(C)[C@@H]1CCC(C)=C[C@H]1c1c(O)cc(CCCCC)c2c1OCN(C)C2
- inhibition at 20 µM [1]: 56.3%
- inhibition at 20 µM [2]: 85.3%
- IC50 [4]: 11.7 µM
- IC50 [5]: 7.7 µM
- IC50 at 48 h [6]: 12.4 µM
- selectivity ratio [7]: 1.1
- selectivity ratio [8]: 1.6

Structure (SMILES): C=C(C)[C@@H]1CCC(C)=C[C@H]1c1c(O)cc(CCCCC)c2c1OCN(CCC)C2
- inhibition at 20 µM [1]: 62.8%
- inhibition at 20 µM [2]: 82.4%
- IC50 [4]: 7.3 µM
- IC50 [5]: 6.1 µM
- IC50 at 48 h [6]: 21.8 µM
- selectivity ratio [7]: 2.9
- selectivity ratio [8]: 3.5

Structure (SMILES): Cc1cc(C)c2nc(-c3ccccn3)cc(C(=O)Nc3ccc(S(=O)(=O)Nc4onc(C)c4C)cc3)c2c1
- Activity [3]: inactive

Structure (SMILES): C=C(C)[C@@H]1CCC(C)=C[C@H]1c1c(O)cc(CCCCC)c2c1OCN(c1cnc3ccccc3c1)C2
- inhibition at 20 µM [1]: 18%
- inhibition at 20 µM [2]: 0%

- solubility [9]: 40 µg/mL (≈ 140 µM)
- solubility [10]: 40 µg/mL (≈ 140 µM)
- solubility [11]: 60 µg/mL (≈ 210 µM)
Structure (SMILES): O=C(/C=C/C=C/c1ccc2c(c1)OCO2)N1CCCCC1 [PIPERINE]

Structure (SMILES): C=C(C)[C@@H]1CCC(C)=C[C@H]1c1c(O)cc(CCCCC)c2c1OCN(CCCN1CCOCC1)C2
- inhibition at 20 µM [1]: 58.5%
- inhibition at 20 µM [2]: 76.8%
- IC50 [4]: 12.1 µM
- IC50 [5]: 8.8 µM
- IC50 at 48 h [6]: 10.6 µM
- selectivity ratio [7]: 0.8
- selectivity ratio [8]: 1.2

Structure (SMILES): CCCCCC1=CC(=O)C([C@@H]2C=C(C)CC[C@H]2C(C)C)=C(O)C1=O
- IC50 [12]: 0.154 µM
- IC50 [13]: 0.154 µM

Structure (SMILES): C=C(C)[C@@H]1CCC(C)=C[C@H]1c1c2c(c(CCCCC)c3c1OCN(CCCC)C3)CN(CCCC)CO2
- inhibition at 20 µM [1]: 0%
- inhibition at 20 µM [2]: 0%

Structure (SMILES): C=C(C)[C@@H]1CCC(C)=C[C@H]1c1c(O)cc(CCCCC)c2c1OCN(C1CC1)C2
- inhibition at 20 µM [1]: 51.7%
- inhibition at 20 µM [2]: 75.1%

Structure (SMILES): C=C(C)[C@@H]1CCC(C)=C[C@H]1c1c(O)cc(CCCCC)c2c1OCN(c1ccc(C(C)C)cc1)C2
- inhibition at 20 µM [1]: 0%
- inhibition at 20 µM [2]: 9.47%

Structure (SMILES): C=C(C)[C@@H]1CCC(C)=C[C@H]1c1c(O)cc(CCCCC)c2c1OCN(c1ccc(OC(F)(F)F)cc1)C2
- inhibition at 20 µM [1]: 0%
- inhibition at 20 µM [2]: 0%

Structure (SMILES): C=C(C)[C@@H]1CCC(C)=C[C@H]1c1c(O)cc(CCCCC)c2c1OCN(C1CCCCCC1)C2
- inhibition at 20 µM [1]: 50.9%
- inhibition at 20 µM [2]: 74.8%

Structure (SMILES): O=C(Nc1ccccc1)c1cc([N+](=O)[O-])ccc1Cl
- Activity [3]: inactive

Structure (SMILES): Oc1cc2c(cc1O)CN(C(=S)NCCc1ccc(Cl)cc1)CCC2
- Activity [3]: inactive

Structure (SMILES): C=C(C)[C@@H]1CCC(C)=C[C@H]1c1c(O)cc(CCCCC)c2c1OCN(CC)C2
- inhibition at 20 µM [1]: 57.2%
- inhibition at 20 µM [2]: 84.3%
- IC50 [4]: 22.1 µM
- IC50 [5]: 8.6 µM
- IC50 at 48 h [6]: 16.8 µM
- selectivity ratio [7]: 0.7
- selectivity ratio [8]: 1.9

Structure (SMILES): C=C(C)[C@@H]1CCC(C)=C[C@H]1c1c(O)cc(CCCCC)c2c1OCN(Cc1ccccc1)C2
- inhibition at 20 µM [1]: 52.3%
- inhibition at 20 µM [2]: 46.5%

Structure (SMILES): COc1ccc(-c2oc3cc(OC)ccc3c2C(=O)c2ccc(C#N)cc2)cc1
- Activity [3]: inactive

Structure (SMILES): C=C(C)[C@@H]1CCC(C)=C[C@H]1c1c(O)cc(CCCCC)c2c1OCN(CCCCCC)C2
- inhibition at 20 µM [1]: 70.9%
- inhibition at 20 µM [2]: 83%
- IC50 [4]: 19.8 µM
- IC50 [5]: 9.5 µM
- IC50 at 48 h [6]: 23.5 µM
- selectivity ratio [7]: 1.1
- selectivity ratio [8]: 2.4
